Consider 1 compound from ChEMBL document CHEMBL4382249, “1-Arylsulfonyl indoline-benzamides as a new antitubulin agents, with inhibition of histone deacetylase” (Eur J Med Chem, 2019).

One assay deals with KB. Kind of assay: Growth inhibition of human KB cells after 48 hrs by SRB assay. The assay is classed as functional, cell-based.
Assay [1] deals with A549. The experiment in a line: Growth inhibition of human A549 cells after 48 hrs by SRB assay. It counts as functional, cell-based. Particulars: A549, 48 h. For orientation: In SRB staining, fixed cells bind dye roughly in proportion to their protein.
A further assay has as its system MKN-45. The experiment in a line: Growth inhibition of human MKN45 cells after 48 hrs by SRB assay. The assay is classed as functional, cell-based. Particulars: MKN-45, 48 h.
Assay [2] is described as follows: Growth inhibition of human KB-VIN10 cells after 48 hrs by SRB assay. The assay is classed as functional. To be noted: KB-VIN10, 48 h.
Assay [3] can be described thus: Growth inhibition of human KB-7d cells after 48 hrs by SRB assay. It counts as functional. To be noted: KB7D.
The target of assay [4] is T1, Protein deacetylase HDAC6 (Homo sapiens) (UniProt Q9UBN7).
T1 sequence (whole entry): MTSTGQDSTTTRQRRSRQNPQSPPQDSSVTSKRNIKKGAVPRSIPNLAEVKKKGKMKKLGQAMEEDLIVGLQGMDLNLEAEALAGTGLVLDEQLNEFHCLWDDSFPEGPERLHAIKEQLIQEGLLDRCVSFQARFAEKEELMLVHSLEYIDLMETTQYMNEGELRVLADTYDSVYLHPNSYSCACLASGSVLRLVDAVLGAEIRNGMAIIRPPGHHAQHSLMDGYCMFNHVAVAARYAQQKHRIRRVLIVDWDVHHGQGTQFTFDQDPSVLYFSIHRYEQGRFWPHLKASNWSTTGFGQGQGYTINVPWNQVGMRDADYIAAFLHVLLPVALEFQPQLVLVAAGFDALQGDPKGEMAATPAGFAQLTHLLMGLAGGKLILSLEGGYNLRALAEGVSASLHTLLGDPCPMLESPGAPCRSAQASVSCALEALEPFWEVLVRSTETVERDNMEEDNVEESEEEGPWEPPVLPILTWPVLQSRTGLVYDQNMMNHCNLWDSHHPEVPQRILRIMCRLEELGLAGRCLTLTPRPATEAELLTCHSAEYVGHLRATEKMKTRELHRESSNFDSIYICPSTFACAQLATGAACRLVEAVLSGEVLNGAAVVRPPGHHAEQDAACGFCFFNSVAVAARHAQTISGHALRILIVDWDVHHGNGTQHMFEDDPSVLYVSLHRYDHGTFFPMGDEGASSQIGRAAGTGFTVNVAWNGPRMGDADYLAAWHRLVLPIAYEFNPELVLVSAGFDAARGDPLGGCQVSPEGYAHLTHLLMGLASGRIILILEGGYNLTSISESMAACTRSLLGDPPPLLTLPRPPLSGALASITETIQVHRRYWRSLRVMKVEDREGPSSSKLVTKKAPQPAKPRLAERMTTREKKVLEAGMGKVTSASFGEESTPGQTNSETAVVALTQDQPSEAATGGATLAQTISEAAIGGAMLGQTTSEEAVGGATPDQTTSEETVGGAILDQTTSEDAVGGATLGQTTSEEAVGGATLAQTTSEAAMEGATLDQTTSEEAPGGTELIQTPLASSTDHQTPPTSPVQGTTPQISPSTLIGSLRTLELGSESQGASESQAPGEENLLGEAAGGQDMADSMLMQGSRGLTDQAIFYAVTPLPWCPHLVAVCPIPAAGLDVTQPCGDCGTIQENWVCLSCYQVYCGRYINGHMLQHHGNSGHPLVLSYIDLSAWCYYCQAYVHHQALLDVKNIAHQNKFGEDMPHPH
Kind of assay: Inhibition of human HDAC6 in human A549 cells assessed as increase in acetylated alpha-tubulin level at 0.6 to […] after 6 hrs by Western blot analysis. It counts as cell-based. Background: In western blotting, separated proteins are transferred to a membrane and probed.

The target of the next assay is Tubulin (Bos taurus, UniProt Q6B856+Q862L2+Q862F3).
For the next assay, the target named is Histone deacetylase 1 (Homo sapiens, UniProt Q13547). The experiment in a line: Inhibition of human HDAC1 using RHKKAc as substrate by fluorescence assay.
The target of the next assay is Histone deacetylase 2 (Homo sapiens, UniProt Q92769). The experiment in a line: Inhibition of human HDAC2 using RHKKAc as substrate by fluorescence assay.
Another assay concerns the target Histone deacetylase 3 (Homo sapiens, UniProt O15379).
The target in assay [5] is T2, Protein deacetylase HDAC6 (Homo sapiens, UniProt Q9UBN7).
T2 sequence (Q9UBN7 whole entry): T1 sequence (whole entry)
The experiment in a line: Inhibition of human HDAC6 using RHKKAc as substrate by fluorescence assay.

Assay [6] has as its target T3, Polyamine deacetylase HDAC10 (Homo sapiens, UniProt Q969S8).
T3 sequence (Q969S8 whole entry): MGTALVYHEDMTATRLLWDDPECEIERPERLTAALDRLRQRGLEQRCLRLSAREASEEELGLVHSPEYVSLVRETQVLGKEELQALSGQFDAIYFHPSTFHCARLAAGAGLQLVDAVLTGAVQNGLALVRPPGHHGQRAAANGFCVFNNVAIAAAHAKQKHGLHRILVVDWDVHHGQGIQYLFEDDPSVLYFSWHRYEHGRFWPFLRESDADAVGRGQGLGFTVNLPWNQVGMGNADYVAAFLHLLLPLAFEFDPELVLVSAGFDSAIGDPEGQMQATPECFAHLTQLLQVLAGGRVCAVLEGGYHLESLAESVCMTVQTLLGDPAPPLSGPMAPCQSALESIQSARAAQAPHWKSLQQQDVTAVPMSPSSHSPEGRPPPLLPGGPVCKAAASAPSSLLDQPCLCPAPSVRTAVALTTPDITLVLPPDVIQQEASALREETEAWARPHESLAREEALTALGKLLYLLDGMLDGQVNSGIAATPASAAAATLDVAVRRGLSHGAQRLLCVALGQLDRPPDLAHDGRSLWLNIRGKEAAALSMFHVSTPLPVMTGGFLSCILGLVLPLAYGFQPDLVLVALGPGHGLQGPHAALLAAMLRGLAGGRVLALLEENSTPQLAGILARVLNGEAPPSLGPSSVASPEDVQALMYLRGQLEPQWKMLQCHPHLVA
Kind of assay: Inhibition of human HDAC10 using RHKKAc as substrate by fluorescence assay. Particulars: read-out: IC50.

Assay [7] concerns A549. Kind of assay: Antitumor activity against human A549 cells xenografted in Balb/c nude mouse assessed as tumor growth inhibition at 50 mg/kg, ip daily measured up to 18 days relative to control. It counts as functional. Particulars: 432 h, read-out: TGI. A general note: A xenograft is tissue or cells of one species grown in another, often human tumour cells in immunodeficient mice.

Assay [8] relates to BJAB. Kind of assay: Antitumor activity against human BJAB cells xenografted in NOD/SCID mouse assessed as tumor growth inhibition at 50 mg/kg, iv daily for 5 days/week measured on day 25 post first dose. It counts as functional, organism-based.
The target in the next assay is Tubulin (Bos taurus) (UniProt Q6B856+Q862L2+Q862F3). To be noted: at 5 µM.
For a further assay, the target named is Histone deacetylase 9 (Homo sapiens, UniProt Q9UKV0). The experiment in a line: Inhibition of human HDAC9 using fluorogenic p53 (379-382) peptide RHKK(Ac) as substrate by fluorescence assay.
Assay [9] deals with BJAB. Kind of assay: Growth inhibition of human BJAB cells assessed as cell viability at 5 nM after 48 hrs by MTT assay (reference value: 100%).
The test system of assay [10] is BJAB. The experiment in a line: Growth inhibition of human BJAB cells assessed as cell viability at 20 nM after 48 hrs by MTT assay (reference value: 100%).

Active and inactive are the calls of the source. The rule behind the calls is not given here.

Histone deacetylase 1, sequence (Q13547 whole entry): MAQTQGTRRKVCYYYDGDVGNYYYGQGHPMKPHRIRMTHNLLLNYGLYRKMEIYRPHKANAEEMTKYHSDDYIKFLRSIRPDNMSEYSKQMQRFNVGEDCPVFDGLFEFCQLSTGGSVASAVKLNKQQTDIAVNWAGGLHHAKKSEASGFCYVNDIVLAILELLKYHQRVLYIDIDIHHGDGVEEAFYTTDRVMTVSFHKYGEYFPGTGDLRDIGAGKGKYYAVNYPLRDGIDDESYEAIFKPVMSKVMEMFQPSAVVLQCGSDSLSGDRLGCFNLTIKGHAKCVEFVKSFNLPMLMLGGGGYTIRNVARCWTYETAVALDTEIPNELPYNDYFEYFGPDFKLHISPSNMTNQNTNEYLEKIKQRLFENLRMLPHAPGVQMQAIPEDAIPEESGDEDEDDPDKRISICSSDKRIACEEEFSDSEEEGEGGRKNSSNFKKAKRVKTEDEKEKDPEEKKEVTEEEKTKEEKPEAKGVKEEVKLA
Histone deacetylase 3, sequence (O15379 whole entry): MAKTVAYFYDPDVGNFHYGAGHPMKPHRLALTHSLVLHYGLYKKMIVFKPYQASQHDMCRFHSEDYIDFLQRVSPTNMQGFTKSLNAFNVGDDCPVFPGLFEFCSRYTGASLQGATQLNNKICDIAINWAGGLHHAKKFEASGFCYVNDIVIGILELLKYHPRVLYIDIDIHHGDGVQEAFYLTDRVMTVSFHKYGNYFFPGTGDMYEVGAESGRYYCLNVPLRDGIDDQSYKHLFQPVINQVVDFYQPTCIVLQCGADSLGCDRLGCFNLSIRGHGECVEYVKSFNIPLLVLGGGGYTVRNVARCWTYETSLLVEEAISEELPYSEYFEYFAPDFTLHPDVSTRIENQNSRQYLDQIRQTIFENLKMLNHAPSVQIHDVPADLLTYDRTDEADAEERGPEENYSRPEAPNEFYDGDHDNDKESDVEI
Histone deacetylase 2, sequence (Q92769 whole entry): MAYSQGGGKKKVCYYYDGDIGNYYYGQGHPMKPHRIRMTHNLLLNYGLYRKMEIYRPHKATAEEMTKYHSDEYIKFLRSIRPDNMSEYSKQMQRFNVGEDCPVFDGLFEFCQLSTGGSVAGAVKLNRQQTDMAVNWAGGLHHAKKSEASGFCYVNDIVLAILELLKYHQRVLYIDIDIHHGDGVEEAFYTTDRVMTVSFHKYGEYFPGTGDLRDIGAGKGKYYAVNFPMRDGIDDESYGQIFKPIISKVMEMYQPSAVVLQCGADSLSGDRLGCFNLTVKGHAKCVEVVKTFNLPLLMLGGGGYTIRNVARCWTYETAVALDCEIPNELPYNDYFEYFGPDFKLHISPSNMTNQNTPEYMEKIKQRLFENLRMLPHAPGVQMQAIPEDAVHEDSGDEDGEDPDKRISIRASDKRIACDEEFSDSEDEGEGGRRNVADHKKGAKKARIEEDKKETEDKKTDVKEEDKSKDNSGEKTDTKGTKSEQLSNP
Histone deacetylase 9, sequence (Q9UKV0 whole entry): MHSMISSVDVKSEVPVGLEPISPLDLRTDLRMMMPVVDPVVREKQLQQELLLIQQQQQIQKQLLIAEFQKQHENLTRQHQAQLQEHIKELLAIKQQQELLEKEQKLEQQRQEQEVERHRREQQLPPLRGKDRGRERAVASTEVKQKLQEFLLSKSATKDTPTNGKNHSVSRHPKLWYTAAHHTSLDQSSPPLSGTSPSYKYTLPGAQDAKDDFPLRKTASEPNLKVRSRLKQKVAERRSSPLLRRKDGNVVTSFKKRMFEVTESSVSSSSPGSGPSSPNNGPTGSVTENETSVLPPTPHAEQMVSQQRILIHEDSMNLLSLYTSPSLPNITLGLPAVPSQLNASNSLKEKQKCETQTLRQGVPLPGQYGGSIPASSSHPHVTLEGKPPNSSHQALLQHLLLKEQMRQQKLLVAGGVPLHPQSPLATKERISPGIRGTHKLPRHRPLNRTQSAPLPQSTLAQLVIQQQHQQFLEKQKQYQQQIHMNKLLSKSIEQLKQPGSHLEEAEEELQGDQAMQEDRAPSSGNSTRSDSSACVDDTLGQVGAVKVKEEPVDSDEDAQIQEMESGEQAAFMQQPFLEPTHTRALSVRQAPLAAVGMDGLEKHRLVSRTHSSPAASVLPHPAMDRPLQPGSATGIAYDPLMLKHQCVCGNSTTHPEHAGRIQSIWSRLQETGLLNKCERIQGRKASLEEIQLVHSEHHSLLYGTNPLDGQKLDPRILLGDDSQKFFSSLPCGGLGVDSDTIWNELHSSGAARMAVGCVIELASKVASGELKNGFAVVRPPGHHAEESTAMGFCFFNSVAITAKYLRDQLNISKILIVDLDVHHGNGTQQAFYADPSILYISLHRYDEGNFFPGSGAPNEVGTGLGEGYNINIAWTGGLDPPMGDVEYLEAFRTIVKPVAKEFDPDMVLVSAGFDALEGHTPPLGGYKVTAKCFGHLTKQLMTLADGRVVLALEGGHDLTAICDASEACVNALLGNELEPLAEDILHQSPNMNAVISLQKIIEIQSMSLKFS

Turning to `COc1ccc(S(=O)(=O)N2CCc3cccc(NCc4ccc(C(=O)Nc5ccccc5N)cc4)c32)cc1`, the IC50 is 49 nM in the assay with KB; 79 nM in the assay on A549 [1]; 63 nM in the assay on MKN-45; 64.7 nM in assay [2]; 46.6 nM in [3]; 1100 nM against Tubulin. Also, the IC50 was 221 nM on Histone deacetylase 1; 662 nM against Histone deacetylase 2; “Not Active” on Histone deacetylase 3; 314 nM in [5]; 10000 nM in assay [6]; “Not Active” against Histone deacetylase 9. In assay [4], the inhibition entry is “Active”. For the same compound, in the assay with A549 [7], the inhibition in vivo at 50 mg/kg was 62.9%. Further, the TGI entry with BJAB [8] was “Active”. Further, the inhibition at Tubulin (Bos taurus) turned out to be 85.2%. Also, the viability at 0.005 µM in the assay with BJAB [9] amounted to 71%. For the same compound, the viability at 0.02 µM with BJAB [10] was determined as 70%.

One may read the IC50 as the midpoint of a concentration-inhibition curve. What is called inhibition is the change of the read-out against control, counted positive when it falls. Usually viability stands for the share of living cells, or the viability signal relative to a control.
